Laboratory results taken from PubChem BioAssay AID248 (DTP/NCI, 2004).
Values joined by “and” are separate entries in the source; they are usually repeats but may differ in a detail not shown here. Equal entries are not always repeated. Inconclusive results and toxic doses are left out. No stated cut-off is given here; in the data, active means T/C of 150% or more; inactive means T/C below 125%.

System: L1210 leukemia ip in BDF1 mice, survival T/C
Test: NCI In Vivo Anticancer Drug Screen. Data for tumor model L1210 Leukemia (intraperitoneal) in B6D2F1 (BDF1) mice
Details: endpoint: mean survival time, higher = longer survival
Summary of the method: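 Each compound was tested against a transplantable tumor grown in mice. The endpoint was survival, with treated animals benchmarked against vehicle controls as a simple ratio.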

[1] = dose: 50.0 mg/kg/injection, schedule: Q01DX001 (ip), vehicle: carboxymethylcellulose (CMC)
[2] = dose: 100.0 mg/kg/injection, schedule: Q01DX001 (ip), vehicle: carboxymethylcellulose (CMC)
[3] = dose: 200.0 mg/kg/injection, schedule: Q01DX001 (ip), vehicle: carboxymethylcellulose (CMC)
[4] = dose: 400.0 mg/kg/injection, schedule: Q01DX001 (ip), vehicle: carboxymethylcellulose (CMC)
[5] = dose: 50.0 mg/kg/injection, schedule: Q04DX002 (ip), vehicle: Klucel (hydroxypropylcellulose) (HPC)
[6] = dose: 100.0 mg/kg/injection, schedule: Q04DX002 (ip), vehicle: Klucel (hydroxypropylcellulose) (HPC)
[7] = dose: 100.0 mg/kg/injection, schedule: Q01DX001 (ip), vehicle: saline
[8] = dose: 200.0 mg/kg/injection, schedule: Q01DX001 (ip), vehicle: saline
[9] = dose: 400.0 mg/kg/injection, schedule: Q01DX001 (ip), vehicle: saline
[10] = dose: 100.0 mg/kg/injection, schedule: Q04DX003 (ip), vehicle: saline with Tween-80
[11] = dose: 200.0 mg/kg/injection, schedule: Q04DX003 (ip), vehicle: saline with Tween-80
[12] = dose: 400.0 mg/kg/injection, schedule: Q04DX003 (ip), vehicle: saline with Tween-80
[13] = dose: 200.0 mg/kg/injection, schedule: Q04DX002 (ip), vehicle: Klucel (hydroxypropylcellulose) (HPC)
[14] = dose: 400.0 mg/kg/injection, schedule: Q04DX002 (ip), vehicle: Klucel (hydroxypropylcellulose) (HPC)
[15] = dose: 50.0 mg/kg/injection, schedule: Q01DX009 (ip), vehicle: Klucel (hydroxypropylcellulose) (HPC)
[16] = dose: 100.0 mg/kg/injection, schedule: Q01DX009 (ip), vehicle: Klucel (hydroxypropylcellulose) (HPC)
[17] = dose: 200.0 mg/kg/injection, schedule: Q01DX009 (ip), vehicle: Klucel (hydroxypropylcellulose) (HPC)
[18] = dose: 100.0 mg/kg/injection, schedule: Q01DX009 (ip), vehicle: other
[19] = dose: 200.0 mg/kg/injection, schedule: Q01DX009 (ip), vehicle: other

Measured: T/C

CC(c1ccccc1)N(N=O)C(=O)c1ccc2ccccc2c1 (centres undefined)
inactive: dose: 17.0 mg/kg/injection, schedule: Q04DX002 (ip), vehicle: saline 94 % of control | dose: 33.0 mg/kg/injection, schedule: Q04DX002 (ip), vehicle: saline 105 % of control | dose: 66.0 mg/kg/injection, schedule: Q04DX002 (ip), vehicle: saline 97 % of control

COC(=O)C1OC(n2cnc3c(Cl)ncnc32)C(OC(C)=O)C(OC(C)=O)C1OC(C)=O (centres undefined)
inactive: [1] 100 % of control | [2] 108 % of control | [3] 103 % of control | [4] 97 % of control

CSc1ccnc2c1ncn2C1OC(CO)C(O)C1O (centres undefined)
inactive: [2] 98 % of control | [3] 104 % of control | [4] 96 % of control

Cc1cccc(C(=O)OCc2ccccc2CN2CCCCC2)c1
inactive: dose: 25.0 mg/kg/injection, schedule: Q04DX002 (ip), vehicle: Klucel (hydroxypropylcellulose) (HPC) 105 % of control | [5] 105 % of control | [6] 105 % of control

CC1(C)SC(C)(C)C1=O
inactive: dose: 50.0 mg/kg/injection, schedule: Q04DX002 (ip), vehicle: gum acacia 100 % of control | dose: 100.0 mg/kg/injection, schedule: Q04DX002 (ip), vehicle: gum acacia 96 % of control | dose: 200.0 mg/kg/injection, schedule: Q04DX002 (ip), vehicle: gum acacia 107 % of control

Cc1ccc(S(=O)(=O)N2CCc3ccccc3C(=O)C2)cc1
inactive: [7] 97 % of control | [8] 94 % of control | [9] 94 % of control

COc1cc(N(CCCl)CCCl)ccc1NC(=O)c1ccccc1
inactive: dose: 100.0 mg/kg/injection, schedule: Q01DX001 (ip), vehicle: other 98 % of control | dose: 200.0 mg/kg/injection, schedule: Q01DX001 (ip), vehicle: other 98 % of control | dose: 400.0 mg/kg/injection, schedule: Q01DX001 (ip), vehicle: other 109 % of control

CCCC[N+](C)(C)CC[N+](C)(C)CCCC
inactive: [7] 102 % of control | [8] 105 % of control | [9] 102 % of control

Cc1ccc2[nH]c3c(C)c4ccncc4c(C)c3c2c1
inactive: dose: 12.5 mg/kg/injection, schedule: Q01DX Z (ip), vehicle: saline 103 % of control | dose: 25.0 mg/kg/injection, schedule: Q01DX Z (ip), vehicle: saline 97 % of control | dose: 50.0 mg/kg/injection, schedule: Q01DX Z (ip), vehicle: saline 111 % of control | dose: 75.0 mg/kg/injection, schedule: Q01DX Z (ip), vehicle: saline 102 % of control | [7] 105 % of control | dose: 100.0 mg/kg/injection, schedule: Q01DX Z (ip), vehicle: saline 97 % of control and 107 % of control | dose: 150.0 mg/kg/injection, schedule: Q01DX Z (ip), vehicle: saline 100 % of control | [8] 98 % of control | dose: 225.0 mg/kg/injection, schedule: Q01DX Z (ip), vehicle: saline 105 % of control | dose: 340.0 mg/kg/injection, schedule: Q01DX Z (ip), vehicle: saline 102 % of control | [9] 100 % of control

Cc1ccccc1NC(=O)NCCCl
inactive: [10] 88 % of control | [11] 88 % of control | [12] 98 % of control

CCOC(=O)c1ccc(NC(=O)CCCCCCCCC(=O)Nc2ccc(C(=O)OCC)cc2)cc1
inactive: [6] 91 % of control | [13] 102 % of control | [14] 95 % of control

O=C(Nc1ncc([N+](=O)[O-])s1)c1ccccc1Oc1ccccc1
inactive: [6] 102 % of control | [13] 115 % of control | [14] 100 % of control

Cc1nn(CCO)c(C)c1N=[N+]([O-])c1c(C)nn(CCO)c1C
inactive: dose: 25.0 mg/kg/injection, schedule: Q01DX009 (ip), vehicle: Klucel (hydroxypropylcellulose) (HPC) 93 % of control and 98 % of control | dose: 30.0 mg/kg/injection, schedule: Q01DX009 (ip), vehicle: saline 95 % of control | [15] 95 % of control and 107 % of control | [5] 101 % of control | [6] 96 % of control | [13] 96 % of control

COc1ccc([N+](=O)[O-])cc1NC(=O)Nc1ccc(I)cc1
inactive: [16] 103 % of control | [17] 95 % of control | dose: 400.0 mg/kg/injection, schedule: Q01DX009 (ip), vehicle: Klucel (hydroxypropylcellulose) (HPC) 103 % of control

CCCCN(C#N)CC(C)(C)[N+](=O)[O-]
inactive: dose: 111.0 mg/kg/injection, schedule: Q01DX Z (ip), vehicle: methylcellulose (MC) 103 % of control | dose: 166.0 mg/kg/injection, schedule: Q01DX Z (ip), vehicle: methylcellulose (MC) 97 % of control | dose: 250.0 mg/kg/injection, schedule: Q01DX Z (ip), vehicle: methylcellulose (MC) 108 % of control

O=c1[nH]cnc2nc(/N=N/SCCO)[nH]c12
inactive: dose: 44.4 mg/kg/injection, schedule: Q01DX Z (ip), vehicle: methylcellulose (MC) 101 % of control | dose: 66.6 mg/kg/injection, schedule: Q01DX Z (ip), vehicle: methylcellulose (MC) 108 % of control | dose: 100.0 mg/kg/injection, schedule: Q01DX Z (ip), vehicle: methylcellulose (MC) 116 % of control | dose: 150.0 mg/kg/injection, schedule: Q01DX Z (ip), vehicle: methylcellulose (MC) 121 % of control

CCCCC(CC)(CO)CO
inactive: [10] 110 % of control | [11] 100 % of control | [12] 111 % of control

O=C(Nc1cc(Cl)cc(Cl)c1)C(Cl)Cl
inactive: [1] 117 % of control | [2] 109 % of control | [3] 105 % of control | [4] 109 % of control

O=C(O)CCl
inactive: dose: 50.0 mg/kg/injection, schedule: Q01DX001 (ip), vehicle: saline 98 % of control | [7] 104 % of control

Clc1ccc(/C=C\c2ccncc2)cc1
inactive: [1] 102 % of control | [2] 98 % of control | [3] 119 % of control | [4] 98 % of control

CCOC(=O)C1(C2=NC(C)(C)CC(C)O2)CCCCC1 (centres undefined)
inactive: [18] 102 % of control | [19] 100 % of control | dose: 400.0 mg/kg/injection, schedule: Q01DX009 (ip), vehicle: other 107 % of control

CCCCOC(=O)c1ccc(OC(=O)Nc2ccc([N+](=O)[O-])cc2OC)cc1
inactive: dose: 50.0 mg/kg/injection, schedule: Q01DX001 (ip), vehicle: Klucel (hydroxypropylcellulose) (HPC) 93 % of control | [15] 96 % of control | dose: 50.0 mg/kg/injection, schedule: Q01DX009 (ip), vehicle: other 101 % of control | [5] 97 % of control | dose: 50.0 mg/kg/injection, schedule: Q04DX003 (ip), vehicle: other 98 % of control | dose: 100.0 mg/kg/injection, schedule: Q01DX001 (ip), vehicle: Klucel (hydroxypropylcellulose) (HPC) 93 % of control | [16] 96 % of control | [18] 105 % of control | [6] 94 % of control | dose: 100.0 mg/kg/injection, schedule: Q04DX003 (ip), vehicle: other 109 % of control | dose: 200.0 mg/kg/injection, schedule: Q01DX001 (ip), vehicle: Klucel (hydroxypropylcellulose) (HPC) 92 % of control | [17] 122 % of control | [19] 102 % of control | [13] 97 % of control | dose: 200.0 mg/kg/injection, schedule: Q04DX003 (ip), vehicle: other 101 % of control | dose: 400.0 mg/kg/injection, schedule: Q01DX001 (ip), vehicle: Klucel (hydroxypropylcellulose) (HPC) 101 % of control | [14] 100 % of control | dose: 400.0 mg/kg/injection, schedule: Q04DX003 (ip), vehicle: other 97 % of control

O=P(O)(O)OCC1OC(O)(COP(=O)(O)O)C(O)C1O (centres undefined)
inactive: dose: 100.0 mg/kg/injection, schedule: Q04DX002 (ip), vehicle: saline 100 % of control | dose: 200.0 mg/kg/injection, schedule: Q04DX002 (ip), vehicle: saline 106 % of control | dose: 400.0 mg/kg/injection, schedule: Q04DX002 (ip), vehicle: saline 95 % of control

O=C1OC(c2ccccc2)=N/C1=C\c1ccc([N+](=O)[O-])cc1
inactive: [6] 92 % of control | [13] 89 % of control | [14] 86 % of control

Cc1ccc(C(C)C)c(OCC(O)CN2CC=CCC2)c1 (centres undefined)
inactive: dose: 25.0 mg/kg/injection, schedule: Q04DX003 (ip), vehicle: saline 100 % of control | dose: 50.0 mg/kg/injection, schedule: Q04DX003 (ip), vehicle: saline 112 % of control | dose: 100.0 mg/kg/injection, schedule: Q04DX003 (ip), vehicle: saline 99 % of control and 109 % of control
